± gives the expanded uncertainty stated by the source.
Details: Liquid, Hot wire method

COC [dimethyl ether]
Details	thermal conductivity [W/m/K]
234.04 K, 5100 kPa	0.1561 ± 0.0033
234.2 K, 600 kPa	0.1534 ± 0.0031
234.29 K, 600 kPa	0.153 ± 0.0031
234.33 K, 10000 kPa	0.16 ± 0.0033
234.43 K, 29800 kPa	0.1704 ± 0.0035
234.44 K, 30000 kPa	0.1709 ± 0.0035
234.58 K, 600 kPa	0.1538 ± 0.0031
234.66 K, 5300 kPa	0.1568 ± 0.0033
234.7 K, 20200 kPa	0.1655 ± 0.0034
234.71 K, 10400 kPa	0.1605 ± 0.0033
234.72 K, 5300 kPa	0.1562 ± 0.0032
234.79 K, 30100 kPa	0.1703 ± 0.0035
235 K, 20100 kPa	0.1654 ± 0.0034
235.27 K, 20200 kPa	0.1655 ± 0.0034
235.32 K, 10700 kPa	0.1598 ± 0.0033
253.99 K, 10200 kPa	0.1528 ± 0.0031
254.02 K, 600 kPa	0.1422 ± 0.0029
254.11 K, 20400 kPa	0.1582 ± 0.0032
254.12 K, 30200 kPa	0.1633 ± 0.0033
254.16 K, 600 kPa	0.1427 ± 0.0029
254.2 K, 20100 kPa	0.1579 ± 0.0032
254.22 K, 10400 kPa	0.1529 ± 0.0031
254.34 K, 30300 kPa	0.1643 ± 0.0033
254.37 K, 20100 kPa	0.1583 ± 0.0032
254.42 K, 600 kPa	0.1427 ± 0.0029
254.42 K, 5100 kPa	0.1467 ± 0.003
254.81 K, 10100 kPa	0.1522 ± 0.0031
254.88 K, 5100 kPa	0.1466 ± 0.003
255.08 K, 5000 kPa	0.1471 ± 0.003
257.35 K, 29900 kPa	0.164 ± 0.0033
273.93 K, 5000 kPa	0.1396 ± 0.0029
274.08 K, 5100 kPa	0.1396 ± 0.0029
274.48 K, 5000 kPa	0.1404 ± 0.0029
274.56 K, 29800 kPa	0.1585 ± 0.0032
274.57 K, 30400 kPa	0.1579 ± 0.0032
274.6 K, 20000 kPa	0.1523 ± 0.0031
274.9 K, 10500 kPa	0.1456 ± 0.003
274.9 K, 20300 kPa	0.1522 ± 0.0031
275.12 K, 20300 kPa	0.1523 ± 0.0031
275.22 K, 10200 kPa	0.1452 ± 0.003
275.3 K, 30600 kPa	0.1582 ± 0.0032
275.31 K, 700 kPa	0.1342 ± 0.0028
275.74 K, 700 kPa	0.1343 ± 0.0028
276.02 K, 10500 kPa	0.1459 ± 0.003
276.44 K, 700 kPa	0.1347 ± 0.0028
293.79 K, 5100 kPa	0.1305 ± 0.0027
293.8 K, 800 kPa	0.1249 ± 0.0026
294.15 K, 800 kPa	0.1252 ± 0.0026
294.16 K, 10000 kPa	0.1362 ± 0.0028
294.22 K, 10200 kPa	0.1364 ± 0.0028
294.3 K, 29800 kPa	0.1495 ± 0.003
294.45 K, 800 kPa	0.1248 ± 0.0026
294.45 K, 4900 kPa	0.1305 ± 0.0027
294.59 K, 29900 kPa	0.1486 ± 0.003
294.68 K, 20600 kPa	0.1417 ± 0.0029
294.84 K, 5200 kPa	0.1307 ± 0.0027
295.13 K, 20300 kPa	0.1417 ± 0.0029
295.22 K, 10000 kPa	0.1356 ± 0.0028
296.32 K, 20200 kPa	0.1415 ± 0.0029
314.01 K, 5100 kPa	0.1191 ± 0.0024
314.06 K, 1000 kPa	0.1143 ± 0.0023
314.11 K, 5200 kPa	0.1189 ± 0.0024
314.39 K, 1000 kPa	0.1145 ± 0.0024
314.39 K, 5100 kPa	0.1195 ± 0.0024
314.43 K, 10200 kPa	0.1242 ± 0.0025
314.6 K, 30100 kPa	0.1385 ± 0.0028
314.66 K, 1000 kPa	0.1137 ± 0.0023
314.81 K, 10200 kPa	0.1241 ± 0.0025
314.88 K, 30000 kPa	0.1382 ± 0.0028
315.01 K, 20400 kPa	0.1313 ± 0.0027
315.06 K, 10100 kPa	0.1242 ± 0.0025
315.07 K, 20100 kPa	0.1318 ± 0.0027
315.37 K, 30400 kPa	0.1384 ± 0.0028
315.55 K, 20000 kPa	0.1318 ± 0.0027
333.73 K, 1500 kPa	0.1079 ± 0.0022
333.92 K, 5200 kPa	0.1113 ± 0.0023
334.03 K, 1500 kPa	0.1075 ± 0.0022
334.09 K, 30000 kPa	0.1283 ± 0.0028
334.31 K, 20200 kPa	0.1229 ± 0.0025
334.38 K, 30100 kPa	0.1287 ± 0.0027
334.47 K, 1500 kPa	0.1078 ± 0.0022
334.55 K, 5100 kPa	0.1108 ± 0.0023
334.7 K, 10200 kPa	0.1156 ± 0.0024
334.79 K, 20200 kPa	0.1224 ± 0.0025
334.85 K, 5200 kPa	0.1116 ± 0.0023
334.9 K, 30200 kPa	0.1288 ± 0.0027
334.91 K, 10200 kPa	0.1154 ± 0.0024
335.09 K, 30400 kPa	0.1294 ± 0.0027
335.29 K, 20100 kPa	0.1228 ± 0.0025
335.37 K, 10100 kPa	0.1151 ± 0.0024
335.72 K, 20000 kPa	0.1223 ± 0.0025
335.76 K, 10300 kPa	0.1146 ± 0.0023
353.73 K, 10300 kPa	0.1059 ± 0.0022
353.93 K, 30500 kPa	0.1206 ± 0.0025
353.97 K, 30100 kPa	0.1208 ± 0.0025
354.06 K, 10200 kPa	0.1053 ± 0.0022
354.1 K, 20400 kPa	0.1145 ± 0.0023
354.15 K, 5800 kPa	0.0998 ± 0.0021
354.21 K, 2300 kPa	0.0973 ± 0.002
354.29 K, 5300 kPa	0.1005 ± 0.0021
354.45 K, 2300 kPa	0.097 ± 0.002
354.59 K, 30100 kPa	0.1208 ± 0.0025
354.86 K, 2300 kPa	0.0971 ± 0.002
354.97 K, 5200 kPa	0.1 ± 0.0021
355.08 K, 20000 kPa	0.1141 ± 0.0023
355.18 K, 2300 kPa	0.0971 ± 0.002
355.36 K, 20100 kPa	0.1142 ± 0.0023
355.46 K, 5200 kPa	0.1012 ± 0.0021
374.25 K, 10700 kPa	0.0988 ± 0.002
374.25 K, 20500 kPa	0.1071 ± 0.0022
374.3 K, 30400 kPa	0.1129 ± 0.0023
374.62 K, 30300 kPa	0.1133 ± 0.0023
374.81 K, 29900 kPa	0.1135 ± 0.0023
374.85 K, 3300 kPa	0.0871 ± 0.0018
374.85 K, 5100 kPa	0.0908 ± 0.0019
374.91 K, 5000 kPa	0.0908 ± 0.0019
375.13 K, 3300 kPa	0.0869 ± 0.0019
375.27 K, 5000 kPa	0.0911 ± 0.0019
375.38 K, 3300 kPa	0.0867 ± 0.0018
375.68 K, 20200 kPa	0.1065 ± 0.0022
376.02 K, 20000 kPa	0.1065 ± 0.0022
376.38 K, 10600 kPa	0.0976 ± 0.002

— the NIST ThermoML archive (doi:10.1021/je800964k)
